Test [1] has as its target T1, human recombinant TC-PTP protein (Homo sapiens, UniProt P17706).
T1 construct: purchased Sigma-Aldrich SRP0218
T1 sequence (P17706 1-415): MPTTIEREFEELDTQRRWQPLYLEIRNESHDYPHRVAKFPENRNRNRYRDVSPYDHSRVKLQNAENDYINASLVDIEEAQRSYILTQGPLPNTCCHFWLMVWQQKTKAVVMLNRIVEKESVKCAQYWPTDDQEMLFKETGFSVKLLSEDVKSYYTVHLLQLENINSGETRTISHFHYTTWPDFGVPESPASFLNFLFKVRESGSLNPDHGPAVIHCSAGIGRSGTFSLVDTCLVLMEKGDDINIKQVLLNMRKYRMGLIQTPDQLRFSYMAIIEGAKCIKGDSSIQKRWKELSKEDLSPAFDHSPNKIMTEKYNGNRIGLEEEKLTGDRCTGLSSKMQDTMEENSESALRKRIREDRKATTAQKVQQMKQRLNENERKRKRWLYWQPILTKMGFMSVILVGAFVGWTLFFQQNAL
As to the kind of experiment: Phosphatase activity assay with DiFMUP, TC-PTP inhibition. The test is classed as biochemical. The note with it: DiFMUP 35 µM, 80 ng/mL TC-PTP, compounds 0.1–80 μM; M ± SEM (n = 24); read-out: IC50 for the inhibitory effect on TC-PTP activity. As for the experimental part: The measurement of the activity of the phosphatases PTP1B and TC-PTP and their inhibition was carried out using 6,8-difluoro-4methylumbelliferyl phosphate (DiFMUP), as previously described. The stock solution of recombinant human PTP1B protein (#ab51277, Abcam, Cambridge, UK), at a concentration of 1 µg/µL, was prepared in 25 mM Tris–HCl (pH 7.5), 20% glycerol, 2 mM β-mercaptoethanol, 1 mm EDTA, and 1 mM DTT, and stored at −20 °C. Active human recombinant TC-PTP protein was purchased from Sigma-Aldrich (#SRP0218, Saint Louis, MO, USA) as the aqueous buffer solution at a concentration of 2.9 mg/mL, and aliquots were stored at −80 °C. The fluorogenic substrate DiFMUP (#D6567, Molecular Probes, Thermo Fisher Scientific, Waltham, MA, USA) was dissolved at a concentration of 10 mM in N,N-dimethylformamide and stored in aliquots at −20 °C. The 6,8-difluoro-7-hydroxy-4-methylcoumarin (DiFMU, #D6566, Molecular Probes, Thermo Fisher Scientific, Waltham, MA, USA) was used as a reference fluorescent standard. For the IC50 determination, the assay was carried out in black flat bottom 96-well plates using a reaction volume of 100 µL. The phosphatases (PTP1B or TC-PTP) were preincubated with the tested compounds (0.1–80 µM) in 50 mM HEPES (pH 6.9), 100 mM NaCl, 1 mM EDTA, 2 mM DTT, 0.1 mg/mL BSA for 5 min at 37 °C. The following concentrations of the compounds were studied: 0.1, 0.2, 0.5, 1, 2, 5, 10, 20, 40, and 80 μM. The reactions were initiated by the addition of the fluorogenic substrate DiFMUP and diluted in the assay buffer. Progress curves for hydrolysis reaction were obtained with 25 µM of DiFMUP for 80 ng/mL PTP1B, and 35 µM of DiFMUP for 80 ng/mL TC-PTP. Fluorescence excitation of hydrolyzed DiFMUP and the fluorescent standard DiFMU was monitored at 355 nm and emission was detected at 460 nm for 6–10 min at 30 s intervals in a Fluoroskan Ascent FL microplate reader (Thermo Electron Corporation, Vantaa, Finland). Initial velocities of the reactions were used to calculate the IC50 values using GraphPad Prism.
The data on food intake, body weight, and biochemical parameters in rats, as well as the PCR data, were analyzed using the IBM SPSS Statistics 22 software (“IBM”, Armonk, NY, USA), and the results are presented as mean ± standard error of the mean (M ± SEM). All differences are considered significant at p < 0.05. The calculation of the IC50 values of the studied inhibitors for the initial velocities of enzymatic reactions (PTP1B, TC-PTP) was carried out using the nonlinear regression analysis with GraphPad Prism 8 (“GraphPad Software, Inc.”, Boston, MA, USA). The statistical analysis was carried out using the Wilcoxon test for pairwise comparison and Dunn’s test for multiple comparisons.

Test [2] concerns TCPTP gene. The test is described as follows: Gene expression in the liver of obese rats (qPCR), TCPTP gene. The format is in vivo, rat. As to conditions: five-day treatment, vs Ob group. The method, then: (§1) Further, six groups were formed: control (Con, n = 10), obesity (Ob, n = 10), obese rats with five-day treatment with compounds 1 (Ob + 1, n = 5), 2 (Ob + 2, n = 5), 3 (Ob + 3, n = 10), and 4 (Ob + 4, n = 10). All compounds were administered in DMSO (300 µL) at a daily dose of 7 mg/kg (1 and 2), 8 mg/kg (3), and 10 mg/kg (4) (i.p.), based on the results of the preliminary experiments. The used doses of compounds 1–4, in terms of the number of moles of each compound per kg of animal body weight, were equivalent. Control and obese rats received DMSO in the same volumes (300 µL), instead of the tested compounds. During the five days of the experiment, all animals were transferred to standard food and had free access to food and drinking water. […] The test was carried out on the morning of the next day after the last (fifth) injection of the compounds or DMSO, after a 10 h fast. The rest of the animals (n = 5 in each group) were anesthetized and decapitated on the last day of the experiment. The blood and liver samples were taken to measure blood glucose and hormone levels and gene expression in the liver.
The total RNA was isolated from the liver samples of rats using the “ExtractRNA Reagent” (Evrogen, Moscow, Russia), and the samples containing 1 μg of RNA were transcribed to cDNA using the random oligodeoxynucleotide primers and the “MMLV RT kit” (Evrogen, Russia). The amplification procedure was carried out in the mixture containing 10 ng of reverse transcribed product, 0.4 μM of the forward and reverse primers, and the “qPCRmix-HS SYBR + LowROX kit” (Evrogen, Russia). The amplified signals were detected using the “Applied Biosystems® 7500 Real-Time PCR System” (Life Technologies, Carlsbad, CA, USA, Thermo Fisher Scientific Inc., USA). The primers that were used to assess the expression of genes encoding the phosphatase PTP1B, TC-PTP, and SHP1 and the insulin and leptin receptors are presented in Table 4. The obtained data were calculated with the delta–delta Ct method and expressed as a fold expression, relative to the corresponding control. […]

Test [3] relates to Shp1 gene. The test is described as follows: Gene expression in the liver of obese rats (qPCR), Shp1 gene. The format is in vivo, rat. As to conditions: five-day treatment. The method, then: as §1
The total RNA was isolated from the liver samples of rats using the “ExtractRNA Reagent” (Evrogen, Moscow, Russia), and the samples containing 1 μg of RNA were transcribed to cDNA using the random oligodeoxynucleotide primers and the “MMLV RT kit” (Evrogen, Russia). The amplification procedure was carried out in the mixture containing 10 ng of reverse transcribed product, 0.4 μM of the forward and reverse primers, and the “qPCRmix-HS SYBR + LowROX kit” (Evrogen, Russia). The amplified signals were detected using the “Applied Biosystems® 7500 Real-Time PCR System” (Life Technologies, Carlsbad, CA, USA, Thermo Fisher Scientific Inc., USA). The primers that were used to assess the expression of genes encoding the phosphatase PTP1B, TC-PTP, and SHP1 and the insulin and leptin receptors are presented in Table 4. The obtained data were calculated with the delta–delta Ct method and expressed as a fold expression, relative to the corresponding control. The expression of the gene encoding 18S RNA was used as an endogenous control.
A general note: Quantitative PCR measures a nucleic acid by following its amplification.

Take `O=c1c(CO)n[nH]c2ccccc12` [Compound 1]: the IC50 in test [1] was found to be 18.9 ± 2.06 µM. For the same molecule, the “expression of the TCPTP gene in the liver” value in test [2] was “significant difference to the Ob group”. In test [3], the “expression of the Shp1 gene in the liver” value was “increased”.
`O=c1c(CO)n[nH]c2ccc(Cl)cc12` [Compound 3, 6-Chloro-3-(hydroxymethyl)cinnolin-4(1H)-one]: the IC50 in test [1] was found to be 2.98 ± 0.76 µM. Also, in test [2], the “expression of the TCPTP gene in the liver” value is reported as “significant difference to the Ob group”. The “expression of the Shp1 gene in the liver” value in test [3] is listed as “did not affect”.
For `O=c1c(CO)n[nH]c2ccc(Br)cc12` [Compound 4, 6-Bromo-3-(hydroxymethyl)cinnolin-4(1H)-one], in that order: 26.5 ± 4.66 µM, “significant difference to the Ob group” and “did not affect”.

As a reminder, the IC50 is the concentration at which inhibition is half-maximal.

These data come from PMC10002984, “Dual PTP1B/TC-PTP Inhibitors: Biological Evaluation of 3-(Hydroxymethyl)cinnoline-4(1H)-Ones” (International Journal of Molecular Sciences, 2023).
